Reference: EP1161410B1, “RETINOID ANTAGONISTS AND USE THEREOF” (Basilea Pharmaceutica AG, priority 1999, dated 2000)

What was measured:
neonatal mouse calvaria = assay: Bone resorption assay, calcium release from neonatal mouse calvaria in tissue culture; format: cell-based, Swiss albino mice
Method: A series of agents are known to induce or stimulate bone resorption. In this assay retinoid antagonists were tested for their capacity to inhibit or counteract the bone resorptive activity of bone resorption inducers.
Bone resorption was determined by quantification of calcium release from neonatal mouse calvaria (skull bones) in a tissue culture system, into supernatant medium. Calvaria were prepared from 4 days old mice (body weight 4-4.5 g) of time controlled mated Swiss albino mice. Frontal and parietal calvarial parts were dissected under a stereo-microscope and halved along the median suture. Half calvaria from all animals were randomly distributed to 6-well culture dishes (NUNC), containing stainless steel grids to support the bones at the interface of gas and medium. The tissue is incubated in BGJ medium (Bioconcept, Switzerland) according to a specified formulation supplemented with 1 mg/ml BSA (bovine serum albumin, SIGMA). Calvaria were cultured at 37°C in humidified atmosphere of 5% CO2 and 95% air. After 24 hours of preincubation, they were transferred to new dishes containing 1.7 ml fresh medium and test substances. Bone resorption inducers and retinoid antagonists were tested either as single agents or in combination. The cultures were then run for 72 hours. Calcium concentrations in culture supernatants were measured immediately after each incubation period. Stable, free calcium was determined in 25 µl samples with a spectrophotometric method using a methylthymol blue containing kit (Biomérieux), (E.M. Gindler and J.D. King, Am. J. Clin. Pathol. 1972, 58, 376-382). The resorptive response was expressed as µg calcium released per half calvarium during 3 days treatment.
Additional tests were done to examine calcium remaining in the calvaria. Calcium was extracted with 5% trichloroacetic acid (TCA) and determined in 50 µl samples after neutralization with NaOH. Furthermore, bone tissue viability was determined to exclude cytotoxicity. This was quantified by the colorimetric MTT tetrazolium test (T. Mosmann, J. Immunol. Methods 1983, 65, 55-63).
Bone resorption induced by the various agents was determined by measuring the amount of calcium released from half calvaria into the supernatant medium. Calcium release is indicated in µg per half calvarium in 1.7 ml medium. Calcium release from calvaria into medium as well as uptake of calcium from medium into calvaria can be measured. Efficacy of retinoid antagonists to inhibit the activity of bone resorption inducers is expressed as % inhibition. It is calculated from the difference between the amount of released calcium by bone resorption inducers alone and the amount of released calcium by their combination with retinoid antagonists. Retinoid antagonists alone induce neither calcium release nor uptake. Basal resorption rate in vehicle controls was 5 or less than 5%.

[1] = Effect on weight loss induced by all-trans retinoic acid in mice; settings: female mice
From the text: Effect of retinoids with RXR antagonistic activity on weight loss induced by all-trans retinoic acid in mice.
The test compounds were solubilized/suspended in arachis oil and applied intraperitoneally into female mice (25/30 g) for 5 days a week during 2 weeks.

TNF-α = TNF-α production by activated monocytes (SAC + IFN-γ); format: cell-based, human; settings: SAC+IFN-γ alone 1840-2000 pg/ml
IL-10 = IL-10 production by activated monocytes (SAC + IFN-γ); format: cell-based, human; settings: SAC+IFN-γ alone 1040 pg/ml
IL-12 [2] = assay: IL-12 production by THP-1 cells stimulated with IFNγ and SAC; format: cell-based, human; settings: retinoid antagonist (1 µg) added at time 0 together with IFNγ, IFNγ+SAC alone 275
Method: (§1) THP-1 cells were obtained from American Tissue Culture Collection and cultured in complete medium. To assay for IL-12 production, THP-1 cells, 1.25 x 10^6 cells/ml, were stimulated with S. aureus Cowan strain (SAC) (1/1000) and human recombinant interferon-γ (huIFN-γ (1000 U/ml) [Ma et al., J. Exp. Med. 183, 147-157 (1996)]. Alternatively, 0.5 x 10^6 human peripheral blood mononuclear cells (PBMC) (1 ml culture in 48 well plates) were primed with huIFN-γ (1000 U/ml) for 16 hours at 37°C, and then stimulated with SAC (1/1000). Supernatants were collected after 48 hours and freezed at -20 °C until assayed [Panina-Bordignon et al., J. Clin. Invest. 100, 1513-1519 (1997)].
(§2) IL-12 production was measured by specific enzyme linked immuno sorbant assay (ELISA), using 20C2 antibody (rat anti human IL-12 heterodimer p40-p35), at 2.5 µg/ml in coating buffer, and peroxidase-conjugated 4D6 antibody (rat anti human IL-12) at 250 ng/ml in assay buffer as described [Zhang et al., J. Clin. Invest. 93, 1733-1739 (1994)]. Standard (recombinant human IL-12, 800 pg/ml to 6 pg/ml) and samples (100 µl) diluted in assay buffer were added to duplicate wells. Absorbance was read at 450-650 nm. The unknown IL-12 concentrations of the samples were read from the corresponding standard curve and multiplied by the corresponding dilution factor. Maximal IL-12 production varied between 200 and 400 pg/ml.
(§3) Lyophilized retinoid antagonists were diluted in DMSO under yellow light, on ice at a concentration of 2 mM. Serial dilutions (1 µM-1 pM) were prepared in complete RPMI medium. 10 µl of each dilution was added to 1 ml culture.

IL-12 [3] = assay: IL-12 production by activated monocytes (SAC + IFN-γ), ELISA; format: cell-based, human; settings: SAC+IFN-γ alone 120-126 pg/ml
Method: THP-1 cells were obtained from American Tissue Culture Collection and cultured in complete medium. […] Exp. Med. 183, 147-157 (1996)]. […] Supernatants were collected after 48 hours and freezed at -20 °C until assayed [[…]-Bordignon et al., J. Clin. Invest. 100, 1513-1519 (1997)]. […] Clin. Invest. 93, 1733-1739 (1994)]. […] Absorbance was read at 450-650 nm. The unknown IL-12 concentrations of the samples were read from the corresponding standard curve and multiplied by the corresponding dilution factor. […] Serial dilutions (1 μM-1 pM) were prepared in complete RPMI medium. 10 μl of each dilution was added to 1 ml culture.

IL-12 [4] = assay: IL-12 production by PBMC primed with IFNγ and stimulated with SAC; format: cell-based, human; settings: IFNγ+SAC alone 360
Method: as §1, §2, §3

[5] = A 200 mg/kg alone, intraperitoneally, n=2
[6] = C 100 mg/kg + A 200 mg/kg, intraperitoneally, n=2
[7] = C 200 mg/kg + A 200 mg/kg, intraperitoneally, n=2

In the case of `C=C1/C(=C\C=C2/CCC[C@]3(C)[C@@H]([C@H](C)CCCC(C)(C)O)CC[C@@H]23)C[C@@H](O)C[C@@H]1O` [Calcitriol, 1,25-dihydroxyvitamin D3], the “Calcium release per half calvarium” value (neonatal mouse calvaria; Calcitriol 0.3 nM alone, 72 hours) was 4 ± 3 µg, the “Calcium release per half calvarium” value (neonatal mouse calvaria; Calcitriol 1 nM alone, 72 hours) was 9 ± 4 µg and the “Calcium release per half calvarium” value (neonatal mouse calvaria; Calcitriol 3 nM alone, 72 hours) was 13 ± 3 µg.
For `CCOc1c(\C(C)=C/C=C/C(C)=C/C(=O)O)cc(C(C)(C)C)cc1C(C)(C)C` [Compound A, (2E,4E,6Z)-7-(3,5-di-tert.butyl-2-ethaxyphenyl]-3-methyl-2,4,6-octatrienoic acid], the “% survival after 14 days” value [1, 5] was 100%, the “% weight change after 4 days” value [1, 5] was “+15%” and the “% weight change after 7 days” value [1, 5] was “+26%”. The “% survival after 14 days” value [1, 6] was 100%, the “% weight change after 4 days” value [1, 6] was -13% and the “% weight change after 7 days” value [1, 6] was -8%. The “% survival after 14 days” value [1, 7] was 100%, the “% weight change after 4 days” value [1, 7] was -23% and the “% weight change after 7 days” value [1, 7] was -23%.
With `CC1=C(/C=C/C(C)=C/C=C/C(C)=C/C(=O)O)C(C)(C)CCC1` [Compound C, all-trans retinoic acid] the “Calcium release per half calvarium” value (neonatal mouse calvaria; all-trans RA 0.01 μM alone, series of antagonist B) was 1 ± 2 µg, the “Calcium release per half calvarium” value (neonatal mouse calvaria; all-trans RA 0.01 μM alone, series of antagonist H) was 1 ± 4 µg and the “Calcium release per half calvarium” value (neonatal mouse calvaria; all-trans RA 0.1 μM alone, series of antagonist B) was 13 ± 3 µg. The “Calcium release per half calvarium” value (neonatal mouse calvaria; all-trans RA 0.1 μM alone, series of antagonist H) was 19 ± 11 µg, the “Calcium release per half calvarium” value (neonatal mouse calvaria; all-trans RA 1 μM alone, series of antagonist B) was 17 ± 3 µg and the “Calcium release per half calvarium” value (neonatal mouse calvaria; all-trans RA 1 μM alone, series of antagonist H) was 23 ± 8 µg. For the same compound, the “% survival after 14 days” value ([1]; C 100 mg/kg alone, intraperitoneally, n=10) was 20% and the “% survival after 14 days” value ([1]; C 200 mg/kg alone, intraperitoneally 5 days a week during 2 weeks, n=2) was 0%.
For `CC1=C(/C=C/C(C)=C\C=C\C(C)=C\C(=O)O)C(C)(C)CCC1` [Compound E, 9-cis retinoic acid], the “Calcium release per half calvarium” value (neonatal mouse calvaria; 9-cis RA 0.01 μM alone, series of antagonist B) was 3 ± 3 µg, the “Calcium release per half calvarium” value (neonatal mouse calvaria; 9-cis RA 0.01 μM alone, series of antagonist H) was 6 ± 10 µg and the “Calcium release per half calvarium” value (neonatal mouse calvaria; 9-cis RA 0.1 μM alone, series of antagonist B) was 17 ± 10 µg. For the same compound, the “Calcium release per half calvarium” value (neonatal mouse calvaria; 9-cis RA 0.1 μM alone, series of antagonist H) was 22 ± 8 µg, the “Calcium release per half calvarium” value (neonatal mouse calvaria; 9-cis RA 1 μM alone, series of antagonist B) was 18 ± 4 µg and the “Calcium release per half calvarium” value (neonatal mouse calvaria; 9-cis RA 1 μM alone, series of antagonist H) was 40 ± 11 µg.
In the case of `CC1(C)CCC(C)(C)c2cc3c(cc21)CCc1c(-c2ccc(C(=O)O)cc2)cn(Cc2cccnc2)c1-3` [Compound I, 4-(7,7,10,10-Tetramethyl-1-pyridin-3-ylmethyl-4,5,7,8,9,10-hexahydro-1H-naphto[2,3-g]indol-3-yl)-benzoic acid], the TNF-α (TNF-α; antagonist 10 nM) was 2592 pg/mL, the TNF-α (TNF-α; antagonist 100 nM) was 2752 pg/mL and the TNF-α (TNF-α; antagonist 1000 nM) was 2884 pg/mL. The IL-10 (IL-10; antagonist 10 nM) was 971 pg/mL, the IL-10 (IL-10; antagonist 100 nM) was 983 pg/mL and the IL-10 (IL-10; antagonist 1000 nM) was 1116 pg/mL. The “THP-1 IL-12” value (IL-12 [2]) was 364 pg/mL, the IL-12 (IL-12 [3]; antagonist 10 nM) was 173 pg/mL and the IL-12 (IL-12 [3]; antagonist 100 nM) was 205 pg/mL. The IL-12 (IL-12 [3]; antagonist 1000 nM) was 321 pg/mL, the “PBMC IL-12” value (IL-12 [4]; retinoid antagonist (1 µg) added after 16 hours together with SAC) was 367 pg/mL and the “PBMC IL-12” value (IL-12 [4]; retinoid antagonist (1 µg) added at time 0 together with IFNγ) was 371 pg/mL.
